Experimental data published in PMC7217877, “N-AS-triggered SPMs are direct regulators of microglia in a model of Alzheimer’s disease” (Nature Communications, 2020).
Where “and” joins values, the source holds several entries; their conditions need not be identical. Identical values can stand only once.

Assays:
APP/PS1 mice = test: cerebral amyloid angiopathy (CAA) quantification (Fig 6f); assay type: in vivo, mouse; settings: Cortex; APP/PS1 + N-AS; individual values
Protocol: Thioflavin S (Sigma-Aldrich) staining was carried out according to previously described procedures. We used 6E10 (mouse, 1:100, Signet, SIG39300), anti-20G10 (mouse, 1:1000, provided by D. R. Howlett, GlaxoSmithKline, Harlow, Essex, UK) for Aβ42, anti-G30 (rabbit, 1:1000, provided by D. R. Howlett) for Aβ40, SMA (mouse, 1:400, Sigma-Aldrich, A2547), AT8 (mouse, 1:500, Thermo Fisher Scientific, MN1020), Caspase-3 (mouse, 1:200, Novus Biologicals, NB100-56708), ac-S565 (rabbit, 1:100), COX2 (mouse, 1:250, Thermo Fisher Scientific, 35-8200), Iba1 (rabbit, 1:500, Wako, 019-19941 and goat, Abcam, ab5076), NeuN (mouse, 1:500, Millipore, MAB177), GFAP (rabbit, 1:500, Dako, N1506 and chicken, 1:500, Abcam, ab4674), and Lamp1 (mouse, 1:200, Abcam, ab24170). The sections were analyzed with a laser-scanning confocal microscope (FV3000; Olympus) or with a BX51 microscope (Olympus). MetaMorph software (Molecular Devices) was used to quantification. Three-dimensional reconstruction of microglia was recorded and analyzed using IMARIS software (Bitplane)[11]. For the analysis of age-dependent microglial COX2^+ CX3CR1^+ cells in WT and APP/PS1 mice, COX2 (rabbit, 1:100, Abcam, ab15191) and CX3CR1 (mouse, 1:100, BioLegend, 149008) antibody were used and the images were acquired on Alexa 488 and APC Channel with performed using Operetta CLS and Analysis Software 4.5 (Perkin-Elmer). […]

COX2 WT = target: T1, COX2 WT (Homo sapiens, UniProt P35354); test: in vitro [14C] acetylation assay of purified COX2; assay type: biochemical; parameters: C14 radioactivity of COX2, acetylation assay (Fig 1h): unit not given here
T1 construct: His (N); made in house
T1 sequence (P35354 18-604): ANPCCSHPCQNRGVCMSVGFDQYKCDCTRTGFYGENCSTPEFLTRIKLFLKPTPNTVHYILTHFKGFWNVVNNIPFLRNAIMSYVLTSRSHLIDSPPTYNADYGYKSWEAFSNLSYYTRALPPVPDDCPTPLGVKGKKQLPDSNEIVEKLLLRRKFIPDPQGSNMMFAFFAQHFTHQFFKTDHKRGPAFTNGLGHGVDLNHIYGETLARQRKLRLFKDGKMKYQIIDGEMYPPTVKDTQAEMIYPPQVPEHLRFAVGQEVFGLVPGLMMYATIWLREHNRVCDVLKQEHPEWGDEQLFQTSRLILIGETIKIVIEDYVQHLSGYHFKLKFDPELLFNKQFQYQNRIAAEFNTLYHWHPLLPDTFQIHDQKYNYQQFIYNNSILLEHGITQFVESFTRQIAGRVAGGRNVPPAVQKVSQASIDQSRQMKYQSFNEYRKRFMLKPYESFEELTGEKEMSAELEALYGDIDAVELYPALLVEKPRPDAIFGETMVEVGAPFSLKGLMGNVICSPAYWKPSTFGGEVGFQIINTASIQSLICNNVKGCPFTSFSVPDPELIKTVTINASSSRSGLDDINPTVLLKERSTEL
Protocol: Acetylation assays were performed according to previously described procedures with minor modifications. […] To confirm the N-AS-mediated COX2 acetylation, 10 μg COX2 (WT or mutants) was used incubated with [^14C] N-AS (2 μCi, ARC UK Ltd, ARC-1024) at 37 °C for 2 h. [^14C] aspirin (2 μCi, ARC UK Ltd, ARC-0473) was conducted as the positive control. The reactions were terminated by placing the reaction tubes in ice for 5 min. To evaluate in vivo neuronal and microglial COX2 acetylation, 10 μCi [^14C] N-AS was orally administrated to 9-months-old WT and APP/PS1 mice. After 1 h, neuron and microglia were isolated and sonicated in culture media. To immunoprecipitate acetylated COX2, the sample was incubated with COX2 antibody (Abcam, ab15191) at 4 °C for 24 h and precipitated by adding 50 μl of protein-A sepharose (GE Healthcare). Acetylated COX2 proteins bound to the beads were analyzed using a Tri-Carb 3110TR liquid scintillation counter (Perkin-Elmer).

SMILES: CCCCCCCCCCCCC/C=C/[C@@H](O)[C@H](CO)NC(C)=O [N-AS, N-((2S,3R,E)-1,3-Dihydroxyoctadec-4-en-2-yl)acetamide]
- amyloid angiopathy (CAA) quantification (APP/PS1 mice): 0.11 and 0.15 and 0.12 and 0.1 and 0.17 and 0.13
- C14 radioactivity of COX2, acetylation assay (Fig 1h) (COX2 WT; COX2 WT, replicates, listed as C14 N-AS): 278534 and 277829 and 277497 and 262864 and 273318 and 276027
- COX2 acetylation level, in words (COX2 WT; [14C] N-AS vs aspirin or SphK1-mediated acetylation): higher-level acetylation
